{"source": "the Kinase Knowledgebase extract (Sharma et al. 2016)"}
{"target": "PIK3CA (human) (UniProt P42336)", "sequence (P42336 whole entry, looked up)": "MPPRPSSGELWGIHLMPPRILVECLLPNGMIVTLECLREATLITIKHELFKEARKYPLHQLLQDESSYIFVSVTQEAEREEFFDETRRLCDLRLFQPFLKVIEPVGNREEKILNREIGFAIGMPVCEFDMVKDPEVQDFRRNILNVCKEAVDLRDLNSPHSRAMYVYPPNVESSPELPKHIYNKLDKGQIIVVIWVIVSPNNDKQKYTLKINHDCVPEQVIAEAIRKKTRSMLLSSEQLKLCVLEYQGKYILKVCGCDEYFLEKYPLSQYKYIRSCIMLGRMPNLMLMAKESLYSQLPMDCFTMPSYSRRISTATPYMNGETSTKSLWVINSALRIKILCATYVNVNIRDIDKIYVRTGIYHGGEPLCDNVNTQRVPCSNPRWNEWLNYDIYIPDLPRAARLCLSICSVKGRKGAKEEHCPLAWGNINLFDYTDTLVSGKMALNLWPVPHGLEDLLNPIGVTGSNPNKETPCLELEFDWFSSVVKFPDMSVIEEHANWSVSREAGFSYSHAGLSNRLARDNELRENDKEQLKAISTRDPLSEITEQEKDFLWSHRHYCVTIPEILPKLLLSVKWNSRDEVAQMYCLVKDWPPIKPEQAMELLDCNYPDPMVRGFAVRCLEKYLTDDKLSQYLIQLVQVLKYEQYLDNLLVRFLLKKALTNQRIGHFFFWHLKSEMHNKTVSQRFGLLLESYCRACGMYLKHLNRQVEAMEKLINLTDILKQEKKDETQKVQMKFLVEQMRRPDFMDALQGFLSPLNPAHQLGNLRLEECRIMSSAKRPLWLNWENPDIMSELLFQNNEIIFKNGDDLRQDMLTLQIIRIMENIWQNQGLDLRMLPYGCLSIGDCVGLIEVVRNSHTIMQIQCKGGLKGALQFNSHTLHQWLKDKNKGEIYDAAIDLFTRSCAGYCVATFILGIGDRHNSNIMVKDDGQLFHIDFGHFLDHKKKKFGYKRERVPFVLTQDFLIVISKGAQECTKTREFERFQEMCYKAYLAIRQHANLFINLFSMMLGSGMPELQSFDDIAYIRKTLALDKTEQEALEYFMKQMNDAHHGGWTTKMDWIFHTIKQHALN", "assay": "Assessment of PI3KCA Kinase Activity", "units": {"IC50": "µM"}}
{"molecule": "N#Cc1c(-c2cc(N)ncn2)sc(C(N)=O)c1-c1ccc(Cl)cc1Cl", "IC50": "0.1 to 1"}
{"molecule": "Cc1nn2ccc(OCCN3CCOCC3)cc2c1-c1nc(-c2ccccc2F)c(-c2nc[nH]n2)s1", "IC50": "< 0.1"}
{"molecule": "Cc1nn2ccc(OCCN3CCN(S(C)(=O)=O)CC3)cc2c1-c1nc(-c2ccccc2)c(-c2nc[nH]n2)s1", "IC50": "< 0.1"}
{"molecule": "CC(=O)Nc1cc(-c2sc(-c3nccn3C)c(-c3ccc(Cl)cc3Cl)c2C#N)ccn1", "IC50": "0.1 to 1"}
{"molecule": "CNc1nccc(-c2sc(-c3nnc[nH]3)c(-c3ccc(Cl)cc3Cl)c2C#N)n1", "IC50": "< 0.1"}
{"molecule": "Cc1nn2ccccc2c1-c1cc(-c2ccccc2)c(-c2nnc[nH]2)s1", "IC50": "< 0.1"}
{"molecule": "COc1ccc(Cl)c(-c2nc(-c3ccnc(NC(C)=O)c3)sc2-c2ncc[nH]2)c1", "IC50": "< 0.1"}
{"molecule": "Cc1nc2ccc(CN(CCN)Cc3ccccc3)cn2c1-c1nc(-c2ccccc2)c(-c2nnc[nH]2)s1", "IC50": "< 0.1"}
{"molecule": "COc1ccc(-c2nc(-c3ccnc(NC(C)=O)c3)sc2-c2ncc[nH]2)cc1", "IC50": "0.1 to 1"}
{"molecule": "O=C1CCc2c(-c3cc(-c4ccc(Cl)cc4Cl)c(-c4ncc[nH]4)s3)ccnc2N1", "IC50": "< 0.1"}
{"molecule": "Cc1nn2ccccc2c1-c1nc(-c2cnn(CCN3CCOCC3)c2)c(-c2nc[nH]n2)s1", "IC50": "0.1 to 1"}
{"molecule": "CC(=O)Nc1cc(-c2sc(-c3nccn3Cc3ccc(F)cc3)c(-c3ccc(Cl)cc3Cl)c2C#N)ccn1", "IC50": "0.1 to 1"}
{"molecule": "Cc1nn2ccc(OCCO)cc2c1-c1nc(-c2ccccc2)c(-c2nnc[nH]2)s1", "IC50": "< 0.1"}
{"molecule": "Cc1n[nH]c(C)c1-c1nc(-c2c(C)nn3ccccc23)sc1-c1nc[nH]n1", "IC50": "< 0.1"}
{"molecule": "Clc1ccc(-c2cc(-c3ccnc4[nH]ccc34)sc2-c2ncc[nH]2)c(Cl)c1", "IC50": "< 0.1"}
{"molecule": "Cc1nn2ccccc2c1-c1nc(-c2ccc(N3CCOCC3)nc2)c(-c2nc[nH]n2)s1", "IC50": "0.1 to 1"}
{"molecule": "CC(=O)Nc1cc(-c2nc(-c3ccc(Cl)cc3Cl)c(-c3nnc[nH]3)s2)ccn1", "IC50": "< 0.1"}
{"molecule": "Cc1nc2ccc(C(O)CO)cn2c1-c1nc(-c2ccccc2)c(-c2nnc[nH]2)s1", "note": "(stereo unspecified)", "IC50": "< 0.1"}
{"molecule": "CCOc1nc(-c2ccnc(NC(=O)c3ccc(N(C)C)cc3)c2)sc1-c1nnc[nH]1", "IC50": "0.1 to 1"}
{"molecule": "CC(=O)Nc1cc(-c2nc(-c3ccc(N(C)C)cc3)c(-c3ncc[nH]3)s2)ccn1", "IC50": "0.1 to 1"}
{"molecule": "CC(=O)Nc1cc(-c2nc(-c3ccc(C)cc3)c(-c3ncc[nH]3)s2)ccn1", "IC50": "< 0.1"}
{"molecule": "CC(=O)Nc1cc(-c2cc(-c3ccc(Cl)cc3Cl)c(-c3ncc[nH]3)s2)ncn1", "IC50": "< 0.1"}
{"molecule": "COCC(=O)Nc1cc(-c2sc(-c3nnc[nH]3)c(-c3ccc(Cl)cc3Cl)c2C#N)ccn1", "IC50": "< 0.1"}
{"molecule": "O=C(Nc1cc(-c2cc(-c3ccc(Cl)cc3Cl)c(-c3ncc[nH]3)s2)ccn1)C1CC1", "IC50": "< 0.1"}
{"molecule": "COc1cccc(F)c1-c1nc(-c2c(C)nn3ccc(OCCN4CCN(S(C)(=O)=O)CC4)cc23)sc1-c1nc[nH]n1", "IC50": "< 0.1"}
{"molecule": "N#Cc1c(-c2ccnc(NC(=O)CCl)c2)sc(-c2nnc[nH]2)c1-c1ccc(Cl)cc1Cl", "IC50": "< 0.1"}
{"molecule": "N#Cc1c(-c2nc(N)ncc2Cl)sc(-c2nnc[nH]2)c1-c1ccc(Cl)cc1Cl", "IC50": "0.1 to 1"}
{"molecule": "Cc1nn2ccccc2c1-c1nc(-c2ccoc2)c(-c2nnc[nH]2)s1", "IC50": "< 0.1"}
{"molecule": "CC(=O)Nc1cc(-c2nc(-c3ccccc3)c(-c3nnc[nH]3)s2)cc(C)n1", "IC50": "0.1 to 1"}
{"molecule": "Cc1nn2ccccc2c1-c1nc(-c2ccccc2F)c(-c2nnc[nH]2)s1", "IC50": "< 0.1"}
{"molecule": "COCCNc1nccc(-c2sc(-c3nnc[nH]3)c(-c3ccc(Cl)cc3Cl)c2C#N)n1", "IC50": "< 0.1"}
{"molecule": "Clc1ccc(-c2cc(-c3ncnc4[nH]ccc34)sc2-c2ncc[nH]2)c(Cl)c1", "IC50": "< 0.1"}
{"molecule": "Cc1nn2ccc(OCCNC(=O)C(C)(C)C)cc2c1-c1nc(-c2ccccc2)c(-c2nc[nH]n2)s1", "IC50": "< 0.1"}
{"molecule": "Cc1nc2ccc(CN3CC[C@H](N)C3)cn2c1-c1nc(-c2ccccc2)c(-c2nnc[nH]2)s1", "IC50": "< 0.1"}
{"molecule": "N#Cc1c(-c2ccnc(Nc3nccs3)c2)sc(-c2ncc[nH]2)c1-c1ccc(Cl)cc1Cl", "IC50": "< 0.1"}
{"molecule": "Cc1nn2ccccc2c1-c1cc(-c2ccc(Cl)cc2Cl)c(-c2ncc[nH]2)s1", "IC50": "< 0.1"}
{"molecule": "Cc1nn2ccccc2c1-c1nc(-c2ccccc2C(F)(F)F)c(-c2nnc[nH]2)s1", "IC50": "< 0.1"}
{"molecule": "O=C1CCc2c(-c3nc(-c4ccc(Cl)cc4Cl)c(-c4ncc[nH]4)s3)ccnc2N1", "IC50": "< 0.1"}
{"molecule": "COC(=O)c1cnc(-c2sc(-c3ccnc(NC(C)=O)c3)c(C#N)c2-c2ccc(Cl)cc2Cl)[nH]1", "IC50": "0.1 to 1"}
{"molecule": "CCOc1nc(-c2ccnc(NC(C)=O)c2)sc1-c1nnc[nH]1", "IC50": "< 0.1"}
{"molecule": "COc1ccc(-c2ccc3nc(C)c(-c4nc(-c5ccccc5)c(-c5nc[nH]n5)s4)n3c2)cc1OC", "IC50": "< 0.1"}
{"molecule": "N#Cc1c(-c2ccnc(NC(=O)C3CC3)c2)sc(-c2nnc[nH]2)c1-c1ccc(Cl)cc1Cl", "IC50": "< 0.1"}
{"molecule": "COC(=O)Nc1cc(-c2sc(-c3ncc[nH]3)c(-c3ccc(Cl)cc3Cl)c2C#N)ccn1", "IC50": "< 0.1"}
{"molecule": "c1ccc(-c2nc(-c3cnn4ccccc34)sc2-c2nnc[nH]2)cc1", "IC50": "0.1 to 1"}
{"molecule": "COC[C@H]1CCCN1CCC(=O)Nc1cc(-c2nc(-c3ccccc3)c(-c3nnc[nH]3)s2)ccn1", "IC50": "< 0.1"}
{"molecule": "Cc1nc2ccc(CCN)cn2c1-c1nc(-c2ccccc2)c(-c2nnc[nH]2)s1", "IC50": "< 0.1"}
{"molecule": "CCOc1nc(-c2ccnc(NC(=O)CCc3ccccc3)c2)sc1-c1nnc[nH]1", "IC50": "< 0.1"}
{"molecule": "N#Cc1c(-c2ccnc(N)c2)sc(-c2ccn[nH]2)c1-c1ccc(Cl)cc1Cl", "IC50": "0.1 to 1"}
{"molecule": "Cc1nn2ccccc2c1-c1nc(-c2cn(C)nc2C(F)(F)F)c(-c2nc[nH]n2)s1", "IC50": "< 0.1"}
{"molecule": "N#Cc1c(-c2ccnc(NC(=O)C3CC3)c2)sc(-c2ccn[nH]2)c1-c1ccc(Cl)cc1Cl", "IC50": "< 0.1"}
{"molecule": "Nc1cc(-c2nc(-c3ccc(Cl)cc3Cl)c(-c3ncc[nH]3)s2)ccn1", "IC50": "< 0.1"}
{"molecule": "Cc1nn2ccccc2c1-c1nc(-c2cc(F)ccc2F)c(-c2nc[nH]n2)s1", "IC50": "< 0.1"}
{"molecule": "Cc1nc2ccc(CNCCCN)cn2c1-c1nc(-c2ccccc2)c(-c2nnc[nH]2)s1", "IC50": "< 0.1"}
{"molecule": "Cc1nn2ccc(OCCNC(=O)C(C)(C)N)cc2c1-c1nc(-c2ccccc2)c(-c2nc[nH]n2)s1", "IC50": "< 0.1"}
{"molecule": "COCCNc1cc(-c2sc(-c3nnc[nH]3)c(-c3ccc(Cl)cc3Cl)c2C#N)ccn1", "IC50": "0.1 to 1"}
{"molecule": "CC(C)(C)Nc1nc2c(-c3cc(-c4ccc(Cl)cc4Cl)c(-c4ncc[nH]4)s3)ncnc2s1", "IC50": "< 0.1"}
{"molecule": "Clc1ccc(-c2cc(-c3ccnc4sccc34)sc2-c2ncc[nH]2)c(Cl)c1", "IC50": "< 0.1"}
{"molecule": "CC(=O)Nc1cc(-c2nc(-c3ccsc3)c(-c3ncc[nH]3)s2)ccn1", "IC50": "0.1 to 1"}
{"molecule": "CC(=O)Nc1cc(-c2nc(-c3ccc(Oc4ccccc4)cc3)c(-c3ncc[nH]3)s2)ccn1", "IC50": "0.1 to 1"}
{"molecule": "Nc1cc(-c2nc(-c3ccccc3)c(-c3nnc[nH]3)s2)ccn1", "IC50": "0.1 to 1"}
{"molecule": "C=Cc1ccc2nc(C)c(-c3nc(-c4ccccc4)c(-c4nc[nH]n4)s3)n2c1", "IC50": "< 0.1"}
{"molecule": "COc1ccc(F)c(F)c1-c1nc(-c2c(C)nn3ccccc23)sc1-c1nc[nH]n1", "IC50": "0.1 to 1"}
{"molecule": "O=C(Nc1cc(-c2nc(-c3ccccc3)c(-c3nnc[nH]3)s2)ccn1)C1CC1", "IC50": "< 0.1"}
{"molecule": "Cc1nn(C)c(C)c1-c1nc(-c2c(C)nn3ccccc23)sc1-c1nc[nH]n1", "IC50": "< 0.1"}
{"molecule": "N#Cc1c(-c2ccncc2)sc(-c2nnc[nH]2)c1-c1ccc(Cl)cc1Cl", "IC50": "0.1 to 1"}
{"molecule": "Cc1nn2ccsc2c1-c1nc(-c2ccc(F)c(F)c2)c(-c2nnc[nH]2)s1", "IC50": "< 0.1"}
{"molecule": "N=C(N)Nc1cc(-c2cc(-c3ccc(Cl)cc3Cl)c(-c3ncc[nH]3)s2)ccn1", "IC50": "0.1 to 1"}
{"molecule": "Cc1nnc(-c2sc(-c3c(C)nn4ccsc34)nc2-c2ccccc2)[nH]1", "IC50": "< 0.1"}
{"molecule": "Cc1nn2ccccc2c1-c1nc(-c2cccc(OCc3ccccc3)c2)c(-c2nc[nH]n2)s1", "IC50": "0.1 to 1"}
{"molecule": "Cc1cc(C(=O)Nc2cc(-c3sc(-c4nnc[nH]4)c(-c4ccc(Cl)cc4Cl)c3C#N)ccn2)no1", "IC50": "0.1 to 1"}
{"molecule": "CC(=O)Nc1cc(-c2nc(-c3ccc(O)cc3)c(-c3ncc[nH]3)s2)ccn1", "IC50": "0.1 to 1"}
{"molecule": "CC(=O)Nc1cc(-c2nc(-c3cccc(OC(F)(F)F)c3)c(-c3ncc[nH]3)s2)ccn1", "IC50": "0.1 to 1"}
{"molecule": "Clc1ccc(-c2nc(-c3ccnc4[nH]ccc34)sc2-c2ncc[nH]2)c(Cl)c1", "IC50": "< 0.1"}
{"molecule": "Cc1nn2ccccc2c1-c1nc(-c2ccccc2)c(-c2nnc[nH]2)s1", "IC50": "< 0.1"}
{"molecule": "CNc1cc(-c2sc(-c3ncc[nH]3)c(-c3ccc(Cl)cc3Cl)c2C#N)ccn1", "IC50": "< 0.1"}
{"molecule": "COCCCNc1nccc(-c2sc(-c3nnc[nH]3)c(-c3ccc(Cl)cc3Cl)c2C#N)n1", "IC50": "< 0.1"}
{"molecule": "N#Cc1c(-c2ccnc(NC(=O)CO)c2)sc(-c2nnc[nH]2)c1-c1ccc(Cl)cc1Cl", "IC50": "< 0.1"}
{"molecule": "CC(=O)Nc1cc(-c2nc(-c3ccccc3)c(-c3nnc[nH]3)s2)ccn1", "IC50": "< 0.1"}
{"molecule": "CC(=O)Nc1cc(-c2sc(-c3ncc[nH]3)c(-c3ccc(Cl)cc3Cl)c2C#N)ccn1", "IC50": "< 0.1"}
{"molecule": "N#Cc1c(-c2ccnc(F)c2)sc(-c2nnc[nH]2)c1-c1ccc(Cl)cc1Cl", "IC50": "0.1 to 1"}
{"molecule": "CNc1ncc(Cl)c(-c2sc(-c3nnc[nH]3)c(-c3ccc(Cl)cc3Cl)c2C#N)n1", "IC50": "0.1 to 1"}
{"molecule": "Cc1nc2ccc(CCCN)cn2c1-c1nc(-c2ccccc2)c(-c2nnc[nH]2)s1", "IC50": "< 0.1"}
{"molecule": "Cc1nn2ccc(O)cc2c1-c1nc(-c2ccccc2)c(-c2nnc[nH]2)s1", "IC50": "< 0.1"}
{"molecule": "COc1ccccc1-c1nc(-c2c(C)nn3ccccc23)sc1-c1nnc[nH]1", "IC50": "< 0.1"}
{"molecule": "Clc1cc(-c2nc(-c3ccccc3)c(-c3nnc[nH]3)s2)ccn1", "IC50": "0.1 to 1"}
{"molecule": "CCOc1nc(-c2ccnc(NC(=O)c3cccc(OC)c3)c2)sc1-c1nnc[nH]1", "IC50": "0.1 to 1"}
{"molecule": "N#Cc1c(-c2ccncc2)sc(C(N)=O)c1-c1ccc(Cl)cc1Cl", "IC50": "0.1 to 1"}
{"molecule": "CC(=O)Nc1cc(-c2nc(-c3ccc4c(c3)OCO4)c(-c3ncc[nH]3)s2)ccn1", "IC50": "< 0.1"}
{"molecule": "Cc1nc(NC(=O)C2CC2)sc1-c1nc(-c2ccccc2)c(-c2nc[nH]n2)s1", "IC50": "< 0.1"}
{"molecule": "CC(=O)Nc1cc(-c2nc(-c3ccc(N)nc3)c(-c3ncc[nH]3)s2)ccn1", "IC50": "0.1 to 1"}
{"molecule": "Cc1nn2ccccc2c1-c1nc(-c2ccc(F)cc2F)c(-c2nc[nH]n2)s1", "IC50": "< 0.1"}
{"molecule": "CC(=O)Nc1cc(-c2nc(-c3ccccc3C)c(-c3ncc[nH]3)s2)ccn1", "IC50": "< 0.1"}
{"molecule": "CCCOc1nc(-c2c(C)nn3ccccc23)sc1-c1nnc[nH]1", "IC50": "< 0.1"}
{"molecule": "N#Cc1c(-c2ccnc(NC(=O)C3CC3)c2)sc(-c2ncc[nH]2)c1-c1ccc(Cl)cc1Cl", "IC50": "< 0.1"}
{"molecule": "Cc1nc2scc(C)n2c1-c1nc(-c2ccccc2)c(-c2nc[nH]n2)s1", "IC50": "0.1 to 1"}
{"molecule": "Cc1nn2ccc(-c3cnn(C)c3)cc2c1-c1nc(-c2ccccc2)c(-c2nc[nH]n2)s1", "IC50": "< 0.1"}
